# Reference: PubChem BioAssay AID2060621 (Molecular Pharmacology Branch, DTP, NCI, 2025)
# Test system: 324938-238-R-J1-PDC complex spheroids viability
# Experiment: Anticancer human tumor 324938-238-R-J1-PDC patient-derived bladder carcinoma cell line growth inhibition [CLK]
# Settings: for IC50: curve of first compound; for viability, T/C: stronger effect = lower value
# Summary of the method: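 Patient-derived tumor cells grown as complex spheroids with HUVEC endothelial cells and mesenchymal stem cells, treated with drug combinations. Concentrations descend in half-log steps from near clinical Cmax, or from 10 microM if Cmax unknown.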
# [1] = second compound 0.0316 µM, first compound 0.0316 µM
# [2] = second compound 0.0316 µM, first compound 0.1 µM
# [3] = second compound 0.0316 µM, first compound 0.316 µM
# [4] = second compound 0.0316 µM, first compound 1 µM
# [5] = second compound 0.0316 µM, first compound 3.16 µM
# [6] = second compound 0.0316 µM, first compound 10 µM
# [7] = second compound 0.1 µM, first compound 0.0316 µM
# [8] = second compound 0.1 µM, first compound 0.1 µM
# [9] = second compound 0.1 µM, first compound 0.316 µM
# [10] = second compound 0.1 µM, first compound 1 µM
# [11] = second compound 0.1 µM, first compound 3.16 µM
# [12] = second compound 0.1 µM, first compound 10 µM
# [13] = second compound 0.316 µM, first compound 0.0316 µM
# [14] = second compound 0.316 µM, first compound 0.1 µM
# [15] = second compound 0.316 µM, first compound 0.316 µM
# [16] = second compound 0.316 µM, first compound 1 µM
# [17] = second compound 0.316 µM, first compound 3.16 µM
# [18] = second compound 0.316 µM, first compound 10 µM
# [19] = second compound 1 µM, first compound 0.0316 µM
# [20] = second compound 1 µM, first compound 0.1 µM
# [21] = second compound 1 µM, first compound 0.316 µM
# [22] = second compound 1 µM, first compound 1 µM
# [23] = second compound 1 µM, first compound 3.16 µM
# [24] = second compound 1 µM, first compound 10 µM
# [25] = second compound 3.16 µM, first compound 0.0316 µM
# [26] = second compound 3.16 µM, first compound 0.1 µM
# [27] = second compound 3.16 µM, first compound 0.316 µM
# [28] = second compound 3.16 µM, first compound 1 µM
# [29] = second compound 3.16 µM, first compound 3.16 µM
# [30] = second compound 3.16 µM, first compound 10 µM
# [31] = second compound 10 µM, first compound 0.0316 µM
# [32] = second compound 10 µM, first compound 0.1 µM
# [33] = second compound 10 µM, first compound 0.316 µM
# [34] = second compound 10 µM, first compound 1 µM
# [35] = second compound 10 µM, first compound 3.16 µM
# [36] = second compound 10 µM, first compound 10 µM
# 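Note: viability read after seven days of drug exposure.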
# 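Throughout, for viability, T/C: 100% = DMSO vehicle control wells.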
structure (smiles),measurement,setting,value
CC(C)CC(NC(=O)C(Cc1ccccc1)NC(=O)c1cnccn1)B(O)O (stereo unspecified) + CNC(=O)c1ccc(Nc2nc(OC3CCCC3)c3c(-c4ccc5nc(C)oc5c4)c[nH]c3n2)c(OC)c1,IC50,second compound 0.0316 µM,1.27 nM
same,IC50,second compound 0.1 µM,< 0.949 nM
same,IC50,second compound 0.316 µM,< 0.949 nM
same,IC50,second compound 1 µM,< 0.949 nM
same,IC50,second compound 3.16 µM,< 0.949 nM
same,IC50,second compound 10 µM,< 0.949 nM
same,"viability, T/C","second compound 0.0316 µM, first compound 0.000949 µM",66.2%
same,"viability, T/C","second compound 0.0316 µM, first compound 0.003 µM",1.72%
same,"viability, T/C","second compound 0.0316 µM, first compound 0.00949 µM",0.22%
same,"viability, T/C","second compound 0.0316 µM, first compound 0.03 µM",0.21%
same,"viability, T/C","second compound 0.0316 µM, first compound 0.0949 µM",0.13%
same,"viability, T/C","second compound 0.0316 µM, first compound 0.3 µM",0.19%
same,"viability, T/C","second compound 0.1 µM, first compound 0.000949 µM",37.7%
same,"viability, T/C","second compound 0.1 µM, first compound 0.003 µM",1.25%
same,"viability, T/C","second compound 0.1 µM, first compound 0.00949 µM",0.18%
same,"viability, T/C","second compound 0.1 µM, first compound 0.03 µM",0.13%
same,"viability, T/C","second compound 0.1 µM, first compound 0.0949 µM",0.55%
same,"viability, T/C","second compound 0.1 µM, first compound 0.3 µM",0.13%
same,"viability, T/C","second compound 0.316 µM, first compound 0.000949 µM",21.6%
same,"viability, T/C","second compound 0.316 µM, first compound 0.003 µM",1.05%
same,"viability, T/C","second compound 0.316 µM, first compound 0.00949 µM",0.17%
same,"viability, T/C","second compound 0.316 µM, first compound 0.03 µM",0.08%
same,"viability, T/C","second compound 0.316 µM, first compound 0.0949 µM",0.1%
same,"viability, T/C","second compound 0.316 µM, first compound 0.3 µM",0.13%
same,"viability, T/C","second compound 1 µM, first compound 0.000949 µM",17.3%
same,"viability, T/C","second compound 1 µM, first compound 0.003 µM",0.5%
same,"viability, T/C","second compound 1 µM, first compound 0.00949 µM",0.13%
same,"viability, T/C","second compound 1 µM, first compound 0.03 µM",0.1%
same,"viability, T/C","second compound 1 µM, first compound 0.0949 µM",0.1%
same,"viability, T/C","second compound 1 µM, first compound 0.3 µM",0.12%
same,"viability, T/C","second compound 3.16 µM, first compound 0.000949 µM",12.2%
same,"viability, T/C","second compound 3.16 µM, first compound 0.003 µM",0.3%
same,"viability, T/C","second compound 3.16 µM, first compound 0.00949 µM",0.2%
same,"viability, T/C","second compound 3.16 µM, first compound 0.03 µM",0.09%
same,"viability, T/C","second compound 3.16 µM, first compound 0.0949 µM",0.14%
same,"viability, T/C","second compound 3.16 µM, first compound 0.3 µM",0.16%
same,"viability, T/C","second compound 10 µM, first compound 0.000949 µM",12%
same,"viability, T/C","second compound 10 µM, first compound 0.003 µM",0.29%
same,"viability, T/C","second compound 10 µM, first compound 0.00949 µM",0.87%
same,"viability, T/C","second compound 10 µM, first compound 0.03 µM",0.13%
same,"viability, T/C","second compound 10 µM, first compound 0.0949 µM",1.24%
same,"viability, T/C","second compound 10 µM, first compound 0.3 µM",0.19%
CC1(C)CCC(CN2CCN(c3ccc(C(=O)NS(=O)(=O)c4ccc(NCC5CCOCC5)c([N+](=O)[O-])c4)c(Oc4cnc5[nH]ccc5c4)c3)CC2)=C(c2ccc(Cl)cc2)C1 + CNC(=O)c1ccc(Nc2nc(OC3CCCC3)c3c(-c4ccc5nc(C)oc5c4)c[nH]c3n2)c(OC)c1,IC50,second compound 0.0316 µM,4520 nM
same,IC50,second compound 0.1 µM,< 31.6 nM
same,IC50,second compound 0.316 µM,< 31.6 nM
same,IC50,second compound 1 µM,< 31.6 nM
same,IC50,second compound 3.16 µM,< 31.6 nM
same,IC50,second compound 10 µM,< 31.6 nM
same,"viability, T/C",[1],76.8%
same,"viability, T/C",[2],78.4%
same,"viability, T/C",[3],84.1%
same,"viability, T/C",[4],83.6%
same,"viability, T/C",[5],69.4%
same,"viability, T/C",[6],6.56%
same,"viability, T/C",[7],29.6%
same,"viability, T/C",[8],25.7%
same,"viability, T/C",[9],26.6%
same,"viability, T/C",[10],19.6%
same,"viability, T/C",[11],19.8%
same,"viability, T/C",[12],4.63%
same,"viability, T/C",[13],18.9%
same,"viability, T/C",[14],14.3%
same,"viability, T/C",[15],15.2%
same,"viability, T/C",[16],13.7%
same,"viability, T/C",[17],14.6%
same,"viability, T/C",[18],4.21%
same,"viability, T/C",[19],14.7%
same,"viability, T/C",[20],21.3%
same,"viability, T/C",[21],14.7%
same,"viability, T/C",[22],14.5%
same,"viability, T/C",[23],13.2%
same,"viability, T/C",[24],7.92%
same,"viability, T/C",[25],17.9%
same,"viability, T/C",[26],14.5%
same,"viability, T/C",[27],14%
same,"viability, T/C",[28],14.8%
same,"viability, T/C",[29],13.6%
same,"viability, T/C",[30],8.16%
same,"viability, T/C",[31],14.8%
same,"viability, T/C",[32],15.1%
same,"viability, T/C",[33],15.8%
same,"viability, T/C",[34],14.7%
same,"viability, T/C",[35],14%
same,"viability, T/C",[36],7.47%
CC1COCCN1c1cc(C2(S(C)(=N)=O)CC2)nc(-c2ccnc3[nH]ccc23)n1 (stereo unspecified) + CNC(=O)c1ccc(Nc2nc(OC3CCCC3)c3c(-c4ccc5nc(C)oc5c4)c[nH]c3n2)c(OC)c1,IC50,second compound 0.0316 µM,1390 nM
same,IC50,second compound 0.1 µM,< 31.6 nM
same,IC50,second compound 0.316 µM,< 31.6 nM
same,IC50,second compound 1 µM,< 31.6 nM
same,IC50,second compound 3.16 µM,< 31.6 nM
same,IC50,second compound 10 µM,< 31.6 nM
same,"viability, T/C",[1],90.4%
same,"viability, T/C",[2],89.2%
same,"viability, T/C",[3],71%
same,"viability, T/C",[4],60.7%
same,"viability, T/C",[5],31.1%
same,"viability, T/C",[6],15.5%
same,"viability, T/C",[7],30.8%
same,"viability, T/C",[8],29.2%
same,"viability, T/C",[9],26.2%
same,"viability, T/C",[10],27.4%
same,"viability, T/C",[11],24.1%
same,"viability, T/C",[12],17.1%
same,"viability, T/C",[13],18.6%
same,"viability, T/C",[14],19.4%
same,"viability, T/C",[15],17.2%
same,"viability, T/C",[16],17.4%
same,"viability, T/C",[17],12.9%
same,"viability, T/C",[18],10.9%
same,"viability, T/C",[19],14.7%
same,"viability, T/C",[20],15.8%
same,"viability, T/C",[21],16%
same,"viability, T/C",[22],12.6%
same,"viability, T/C",[23],13.9%
same,"viability, T/C",[24],7.97%
same,"viability, T/C",[25],16.2%
same,"viability, T/C",[26],15.1%
same,"viability, T/C",[27],16.9%
same,"viability, T/C",[28],15.6%
same,"viability, T/C",[29],13.1%
same,"viability, T/C",[30],7.09%
same,"viability, T/C",[31],16.6%
same,"viability, T/C",[32],15.1%
same,"viability, T/C",[33],16.7%
same,"viability, T/C",[34],15.2%
same,"viability, T/C",[35],14.5%
same,"viability, T/C",[36],8.22%
